Data taken from EP4813403A1, “USE OF GLP-1R/GIPR DOUBLE-TARGET AGONIST IN PREPARING ANIMAL DRUG” (Hangzhou Zhongmeihuadong Pharmaceutical Co., Ltd., priority 2023, dated 2025).

Experiments:
dog GLP-1R = target: T1, dog GLP-1R (Canis lupus familiaris, UniProt A0A8I3NUR9); experiment: Agonistic activity on GLP-1R of different species (LANCE Ultra cAMP assay): dog; format: cell-based; conditions: ratio of EC50 value of other species to human EC50 value
T1 construct: expressed in transfected cells
T1 sequence (A0A8I3NUR9 1-464): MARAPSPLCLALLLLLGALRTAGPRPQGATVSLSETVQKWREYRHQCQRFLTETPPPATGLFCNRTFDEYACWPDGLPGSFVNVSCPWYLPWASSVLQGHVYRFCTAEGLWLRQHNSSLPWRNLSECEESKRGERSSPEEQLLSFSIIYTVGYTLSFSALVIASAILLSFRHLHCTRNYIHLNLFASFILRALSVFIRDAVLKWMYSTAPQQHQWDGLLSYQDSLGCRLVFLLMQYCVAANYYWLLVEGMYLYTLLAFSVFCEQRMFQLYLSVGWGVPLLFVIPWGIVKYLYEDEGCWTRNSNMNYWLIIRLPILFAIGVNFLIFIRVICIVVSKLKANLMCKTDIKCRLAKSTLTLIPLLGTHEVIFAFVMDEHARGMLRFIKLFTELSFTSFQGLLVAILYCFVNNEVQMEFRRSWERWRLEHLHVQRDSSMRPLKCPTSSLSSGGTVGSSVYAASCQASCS
Description: The in vitro agonistic activity of the compound of the present invention on GLP-1R was measured in cells stably expressing human, dog, mouse, rat, rabbit, and monkey GLP-1R (human GLP-1R-HEK, dog GLP-1R-HEK, mouse GLP-1R-HEK, rat GLP-1R- in HEK, rabbit GLP-1R-CHO, monkey GLP-1R-HEK cells). Human GLP-1R-HEK, dog GLP-1R-HEK, mouse GLP-1R-HEK, rat GLP-1R-HEK, rabbit GLP-1R-CHO, and monkey GLP-1R-HEK cells were resuspended in 1×Casein Stimulation Buffer (HBSS, 5 mM HEPES, 0.5 mM IBMX, 0.1% casein, pH7.4), and seeded into a 384-well cell culture plate at 9 µL/well (cell numbers being 1000, 1000, 1000, 1500, 1000, 1000 cells/well, respectively). 1 µL of 1×Casein Stimulation Buffer containing 10× compound was added to the above-mentioned 384-well cell culture plate. The plate was incubated at 37 °C for 30 minutes. After the incubation was completed, 5 µL of Eu-cAMP working solution and 5 µL of Ulight^TM-cAMP working solution were added sequentially, centrifuged and then incubated at room temperature for 1 hour. The readings at 665 nm and 620 nm were determined with a 330 nm excitation light on a microplate reader. The 665 nm/620 nm reading ratio was calculated. […] GraphPad was used to perform nonlinear regression according to the response percentage and the concentration of the compound added to obtain the EC50 value for each compound.

DIO mice = experiment: Weight loss effect in DIO mice obesity model; format: in vivo; set-up: Cumulative food intake / Fasting blood glucose / Insulin / Serum TC / ALT: unit not given here; conditions: for Insulin resistance index / Serum TC / Fasting blood glucose / Insulin / Body weight / Cumulative food intake / Liver Weight / ALT: Mean±SEM, 10 mice; for Insulin: D30 serum; for Body weight / Cumulative food intake / Liver Weight / Total abdominal fat: s.c. once every 3 days for 4 weeks; for Total abdominal fat: sum of perirenal and paratesticular fat; for ALT: serum
Description: In this study, 26-week-old male DIO mice were used. DIO mice were housed in appropriate cages. DIO mice were housed in an environment-monitored and well-ventilated SPF-grade animal room, with the temperature maintained between 20 and 26°C and relative humidity between 40% and 70%. […] The mice received food and water ad libitum. […] The mice were subcutaneously administrated once every 3 days for 4 consecutive weeks. […] Food intake was measured once daily after administration. RBG was measured before grouping and at 48 h after each administration. After fasted for 5 h on D30 (no water deprivation was required), FBG and glycated hemoglobin A1c (HbA1c) were detected, and blood was collected intravenously to separate the serum. A mouse insulin ELISA kit was used to detect the insulin content in the serum, and a biochemistry analyser was used to detect total cholesterol (TC), TG, low-density lipoprotein cholesterol (LDL), high-density lipoprotein cholesterol (HDL), free fatty acid (FFA), ALT, and aspartate aminotransferase (AST) content. The liver was collected, the perirenal and paratesticular fat tissues were separated and weighed, the organ-body ratio was calculated. The liver was stained with HE and Oil Red O for pathological scoring. The data results were statistically analyzed using one-way analysis of variance (ANOVA). A Levene's test was performed to test for variance homogeneity. If the result was homogeneous (P>0.05), a one-way analysis of variance (ANOVA) would be performed. […] In the case of heterogeneity of variance (P ≤0.05 ), a Dunnett's T3 test would be performed. Results were expressed as mean and standard deviation (Mean ± SEM). The test level was 0.05. Both statistical significance and biological significance were considered when analyzing the results.

[1] = 0.3 nmol/kg s.c. once every 3 days
[2] = 1 nmol/kg s.c. once every 3 days
[3] = 3 nmol/kg s.c. once every 3 days
[4] = 30 nmol/kg s.c. once every 3 days

What does the source list for `CC[C@H](C)[C@H](NC(=O)C(C)(C)NC(=O)[C@H](Cc1ccc(O)cc1)NC(=O)[C@H](CC(=O)O)NC(=O)[C@H](CO)NC(=O)[C@@H](NC(=O)C(C)(Cc1ccccc1)NC(=O)[C@@H](NC(=O)CNC(=O)[C@H](CCC(=O)O)NC(=O)C(C)(C)NC(=O)[C@@H](N)Cc1ccc(O)cc1)[C@@H](C)O)[C@@H](C)O)C(=O)NC(C)(C)C(=O)N[C@@H](CC(C)C)C(=O)N[C@@H](CC(=O)O)C(=O)N[C@@H](CCCCN)C(=O)N[C@@H](CCC(N)=O)C(=O)N[C@@H](C)C(=O)N[C@@H](CCC(N)=O)C(=O)N[C@@H](C)C(=O)N[C@@H](CCC(=O)O)C(=O)N[C@@H](Cc1ccccc1)C(=O)N[C@H](C(=O)N[C@@H](CCCCNC(=O)COCCOCCNC(=O)COCCOCCNC(=O)COCCOCCNC(=O)CC[C@H](NC(=O)CCCCCCCCCCCCCCCCCCCCC(=O)O)C(=O)O)C(=O)N[C@@H](Cc1c[nH]c2ccccc12)C(=O)N[C@@H](CC(C)C)C(=O)N[C@@H](CC(C)C)C(=O)N[C@@H](CCCCN)C(=O)NCC(=O)NCC(=O)N1CCC[C@H]1C(=O)N[C@@H](CO)C(=O)N[C@@H](CO)C(=O)NCC(=O)N[C@@H](C)C(=O)N1CCC[C@H]1C(=O)N1CCC[C@H]1C(=O)N1CCC[C@H]1C(=O)N[C@@H](CO)C(=O)N[C@@H](CCCCN)C(N)=O)C(C)C` (stereo partly shown) [Compound P016]?
GLP-1R EC50 ratio (dog GLP-1R): 4.52; Insulin resistance index (DIO mice; [1]): 43.94±6.288; Serum TC (DIO mice; [1]): 4.07±0.26; Insulin resistance index (DIO mice; [2]): 21.532±3.705; Serum TC (DIO mice; [2]): 3.26±0.20; Insulin resistance index (DIO mice; [3]): 11.991±1.907; Serum TC (DIO mice; [3]): 2.61±0.13; Insulin resistance index (DIO mice; [4]): 5.179±1.178; Serum TC (DIO mice; [4]): 2.50±0.18; Fasting blood glucose (DIO mice; D30, 0.3 nmol/kg s.c. once every 3 days): 13.78±0.39; Fasting blood glucose (DIO mice; D30, 1 nmol/kg s.c. once every 3 days): 11.23±0.40; Fasting blood glucose (DIO mice; D30, 3 nmol/kg s.c. once every 3 days): 10.36±0.67; Fasting blood glucose (DIO mice; D30, 30 nmol/kg s.c. once every 3 days): 8.39±0.30; Insulin (DIO mice; [1]): 3.285±0.481; Insulin (DIO mice; [2]): 1.911±0.29; Insulin (DIO mice; [3]): 1.196±0.185; Insulin (DIO mice; [4]): 0.624±0.130; Body weight (DIO mice; 0.3 nmol/kg): 45.4 ± 1.3 g; Cumulative food intake (DIO mice; 0.3 nmol/kg): 75.75±2.81; Liver Weight (DIO mice; 0.3 nmol/kg): 1.552 ± 0.106 g; Total abdominal fat (DIO mice; 0.3 nmol/kg): 2.631 ± 0.069 g; Body weight (DIO mice; 1 nmol/kg): 38.3 ± 1.1 g; Cumulative food intake (DIO mice; 1 nmol/kg): 61.40±1.58; Liver Weight (DIO mice; 1 nmol/kg): 1.191 ± 0.075 g; Total abdominal fat (DIO mice; 1 nmol/kg): 1.849 ± 0.181 g; Body weight (DIO mice; 3 nmol/kg): 34.1 ± 0.7 g; Cumulative food intake (DIO mice; 3 nmol/kg): 55.47±2.72; Liver Weight (DIO mice; 3 nmol/kg): 1.069 ± 0.029 g; Total abdominal fat (DIO mice; 3 nmol/kg): 0.972 ± 0.076 g; Body weight (DIO mice; 30 nmol/kg): 29 ± 0.7 g; Cumulative food intake (DIO mice; 30 nmol/kg): 48.38±2.31; Liver Weight (DIO mice; 30 nmol/kg): 0.995 ± 0.029 g; Total abdominal fat (DIO mice; 30 nmol/kg): 0.461 ± 0.034 g; ALT (DIO mice; [1]): 95.60±14.09; ALT (DIO mice; [2]): 43.90±3.86; ALT (DIO mice; [3]): 52.80±9.62; ALT (DIO mice; [4]): 49.60±5.67
